Experimental data published in patent US20240398773A1, “COMPOSITIONS COMPRISING OTESECONAZOLE” (Mycovia Pharmaceuticals, Inc., priority 2021, published 2024).
Read-outs that look alike come from different tables or passages of the source.

Columns and labels:
[1] = Phase 2b study and three Phase 3 studies, plasma concentration at end of dosing; assay type: in vivo; settings: human, oral, loading dose Days 1 and 2, then 150 mg weekly, read-out: mean plasma concentrations at the end of the dosing period (Week 14)
Procedure: Oteseconazole dosing regimens will also incorporate a 150 mg once weekly maintenance dose phase for 11 weeks. The initial loading dose given on Days 1 and 2 combined with maintenance dosing of 150 mg oteseconazole weekly for a total treatment duration of 12 weeks was efficacious in preventing recurrence of acute VVC episodes for the duration of the study (48-50 weeks). Based on the PK results from a Phase 2b study and three Phase 3 studies, mean plasma concentrations of approximately 2.5 to 3.5 μg/mL are observed at the end of the dosing period (Week 14).

[2] = Phase 2a acute VVC study, safety; assay type: in vivo, human; settings: administered for 3 days
Procedure: Oteseconazole has previously been evaluated in a Phase 2a multi-center, randomized, double-blind, active-controlled, parallel-group, dose-ranging study in patients with moderate-to-severe acute VVC. A total of 55 subjects with moderate-to-severe acute VVC (severity score ≥6 and a positive fungal KOH test) participated in the study across 4 dose groups: 1) oteseconazole 300 mg qd for 3 days: 2) 600 mg qd for 3 days: 3) 600 mg bid for 3 days; or 4) a single dose of fluconazole 150 mg followed by matching placebo. […] No safety signals of clinical concern were observed from the safety assessments.

Study CL-017 plasma PK = assay type: in vivo, human; settings: for Tmax: Median
Procedure: Oteseconazole mean (SD) plasma concentration during the intense PK sampling period on Day 1 peaked at 4 hours postdose (1425.8 [672.05] μg/L) and decreased slightly by 8 hours postdose (1301.06 [782.76] μg/L). On Day 2, mean (SD) oteseconazole plasma concentrations were 697.7 (264.40) μg/L at predose, then increased to 1895.0 (640.00) μg/L at 4 hours postdose, and decreased to 1555.6 (392.68) μg/L by 8 hours postdose (FIG. 6).
Over the period of Day 14 to Week 50, oteseconazole plasma concentrations were measured at Day 14, Week 14 (end of dosing), and Week 50 (end of follow-up period). Oteseconazole mean (SD) plasma concentration increased from 1396.9 (709.00) μg/L at Day 14 to 2679.3 (1318.94) μg/L at Week 14 before decreasing to 873.4 (534.49) μg/L at Week 50 (FIG. 7).
Median Tmax occurred at 4.00 hours on Day 2; however, Tmax occurred in a narrower range (2.00 to 8.00 hours) compared with that observed on Day 1. The AUC0-8 was 7570 h*μg/L and 11700 h*μg/L, for Day 1 and Day 2, respectively (Table 17).

[3] = Study CL-012 plasma concentrations; assay type: in vivo; settings: human
Procedure: Oteseconazole mean (SD) plasma concentration increased with dosing for 12 weeks, reaching a maximum concentration of 3605.8 (1518.08) μg/L at Week 12. At the end of dosing, there was a slow decrease in oteseconazole plasma concentration, reaching 1122.0 (656.14) μg/L by Week 48 (FIG. 5). Following the loading dose regimen of 150 mg oteseconazole QD for 7 days, the mean (SD) oteseconazole plasma concentration at Day 14 was 1785.5 (747.75) μg/L.

Study CL-006 plasma PK = assay type: in vivo, human; settings: for AUC(0-t): read-out: AUC0-8
Source text: Oteseconazole plasma concentrations continued to increase after the 7-day loading dose portion of the Maintenance Period until the end of dosing in an approximately dose-proportional manner FIG. 3.
Mean plasma PK parameters on Day 7 of the Maintenance Period are presented by treatment group in Table 12.

[4] = Study CL-003 in subjects with tinea pedis, plasma PK; assay type: in vivo, human; settings: for AUC(0-t): read-out: AUC0−8
Procedure: Oteseconazole was slowly absorbed, with median time to peak plasma concentration values that ranged from 5.0 to 6.0 hours after dosing on Days 1 and 14 for all treatments. […] The Cmax values on Day 1 were similar between the mid- and high-dose treatments, since the first dose on that day was 600 mg for each treatment.

[5] = human, plasma, 150 mg, Day 7, 150 mg, 12 weeks
[6] = human, plasma, 150 mg, Day 7, 150 mg, 24 weeks
[7] = human, plasma, 300 mg, Day 7, 300 mg, 12 weeks
[8] = human, plasma, 300 mg, Day 7, 300 mg, 24 weeks
[9] = human, plasma, High Dose 1200 mg/300 mg, Day 1
[10] = human, plasma, High Dose 1200 mg/300 mg, Day 14
[11] = human, plasma, Low Dose 200 mg/50 mg, Day 1
[12] = human, plasma, Low Dose 200 mg/50 mg, Day 14
[13] = human, plasma, Mid Dose 600 mg/150 mg, Day 1
[14] = human, plasma, Mid Dose 600 mg/150 mg, Day 14

Q: For `O[C@@](Cn1cnnn1)(c1ccc(F)cc1F)C(F)(F)c1ccc(-c2ccc(OCC(F)(F)F)cc2)cn1` [Oteseconazole, oteseconazole], which concentration at 14 week [1] is on record?
A: 2500 to 3500 ng/mL

Q: What about the serious adverse events [2] of the same molecule?
A: no serious adverse events

Q: What about the safety and tolerability ([2]; 300 mg qd to 600 mg bid) of the same molecule?
A: safe and well tolerated

Q: What about the Clast (Study CL-017 plasma PK; 3 × 150 mg (450 mg), Day 2, Geometric Mean) of the same molecule?
A: 1510 ng/mL

Q: What about the AUC(0-t) (Study CL-017 plasma PK; human, plasma, oral, 450 mg, 3 × 150 mg (450 mg), Day 2, Geometric Mean, read-out: AUC0-8) of the same molecule?
A: 11700 ng·h/mL

Q: And the concentration at 4 h (Study CL-017 plasma PK; human, plasma, oral, 450 mg, Day 2, 4 hours postdose, read-out: mean (SD) plasma concentration)?
A: 1900 ng/mL

Q: What about the concentration at 8 h (Study CL-017 plasma PK; human, plasma, oral, 450 mg, Day 2, 8 hours postdose, read-out: mean (SD) plasma concentration) of the same molecule?
A: 1560 ng/mL

Q: And the AUC(0-t) (Study CL-017 plasma PK; human, plasma, oral, 450 mg, Day 2, as given in text, read-out: AUC0-8)?
A: 11700 ng·h/mL

Q: And the AUC(0-t) (Study CL-017 plasma PK; human, plasma, oral, 600 mg, 600 mg dose on Day 1, as given in text, read-out: AUC0-24)?
A: 20600 ng·h/mL

Q: And the AUC(0-t) (Study CL-017 plasma PK; human, plasma, oral, 600 mg, 4 × 150 mg (600 mg), Day 1, Geometric Mean, N 8, read-out: AUC0-24)?
A: 20600 ng·h/mL

Q: And the AUC(0-t) (Study CL-017 plasma PK; human, plasma, oral, 600 mg, 4 × 150 mg (600 mg), Day 1, Geometric Mean, read-out: AUC0-8)?
A: 7570 ng·h/mL

Q: And the concentration at 24 h (Study CL-017 plasma PK; human, plasma, oral, 600 mg, 4 × 150 mg (600 mg), Day 1, Geometric Mean, read-out: Clast)?
A: 651 ng/mL

Q: And the concentration at 24 h (Study CL-017 plasma PK; human, plasma, oral, 600 mg, 24 hours after 600 mg Day 1 dose (predose Day 2), read-out: plasma concentrations, range across subjects)?
A: 354 to 1150 ng/mL

Q: And the concentration at 4 h (Study CL-017 plasma PK; human, plasma, oral, 600 mg, Day 1, 4 hours postdose, read-out: mean (SD) plasma concentration)?
A: 1430 ng/mL

Q: What about the concentration at 8 h (Study CL-017 plasma PK; human, plasma, oral, 600 mg, Day 1, 8 hours postdose, read-out: mean (SD) plasma concentration) of the same molecule?
A: 1300 ng/mL

Q: What about the AUC(0-t) (Study CL-017 plasma PK; human, plasma, oral, 600 mg, Day 1, as given in text, read-out: AUC0-8) of the same molecule?
A: 7570 ng·h/mL

Q: What about the concentration at 24 h (Study CL-017 plasma PK; human, plasma, oral, 600 mg, Day 2, predose, read-out: mean (SD) plasma concentration) of the same molecule?
A: 698 ng/mL

Q: What about the concentration at 14 day (Study CL-017 plasma PK; human, plasma, oral, Day 14, read-out: mean (SD) plasma concentration) of the same molecule?
A: 1400 ng/mL

Q: And the concentration at 14 week (Study CL-017 plasma PK; human, plasma, oral, Week 14 (end of dosing), read-out: mean (SD) plasma concentration)?
A: 2680 ng/mL

Q: And the concentration at 50 week (Study CL-017 plasma PK; human, plasma, oral, Week 50 (end of follow-up period), read-out: mean (SD) plasma concentration)?
A: 873 ng/mL

Q: And the Cmax (Study CL-017 plasma PK; human, plasma, oral, 3 × 150 mg (450 mg), Day 2, Geometric Mean)?
A: 2010 ng/mL

Q: What about the Tmax (Study CL-017 plasma PK; human, plasma, oral, 3 × 150 mg (450 mg), Day 2) of the same molecule?
A: 4 h

Q: What about the Cmax (Study CL-017 plasma PK; human, plasma, oral, 4 × 150 mg (600 mg), Day 1, Geometric Mean) of the same molecule?
A: 1620 ng/mL

Q: And the Tmax (Study CL-017 plasma PK; human, plasma, oral, 4 × 150 mg (600 mg), Day 1)?
A: 4.01 h

Q: What about the concentration at 12 week ([3]; 150 mg, Week 12, maximum concentration, read-out: mean (SD) plasma concentration) of the same molecule?
A: 3610 ng/mL

Q: What about the concentration at 48 week ([3]; 150 mg, Week 48, read-out: mean (SD) plasma concentration) of the same molecule?
A: 1120 ng/mL

Q: And the concentration at 14 day ([3]; Day 14, after loading 150 mg QD for 7 days, read-out: mean (SD) plasma concentration)?
A: 1790 ng/mL

Q: And the Tmax (Study CL-006 plasma PK; Day 7, 150 mg, 24 weeks)?
A: 4.93 h

Q: And the Tmax (Study CL-006 plasma PK; Day 7, 300 mg, 12 weeks)?
A: 4.92 h

Q: What about the Cmax (Study CL-006 plasma PK; [5]) of the same molecule?
A: 1340 ng/mL

Q: And the AUC(0-t) (Study CL-006 plasma PK; [5])?
A: 9120 ng·h/mL

Q: And the Cmax (Study CL-006 plasma PK; [6])?
A: 1800 ng/mL

Q: And the AUC(0-t) (Study CL-006 plasma PK; [6])?
A: 12300 ng·h/mL

Q: What about the Cmax (Study CL-006 plasma PK; [7]) of the same molecule?
A: 2750 ng/mL

Q: What about the AUC(0-t) (Study CL-006 plasma PK; [7]) of the same molecule?
A: 20500 ng·h/mL

Q: And the Cmax (Study CL-006 plasma PK; [8])?
A: 3120 ng/mL

Q: What about the AUC(0-t) (Study CL-006 plasma PK; [8]) of the same molecule?
A: 21600 ng·h/mL

Q: What about the concentration at 48 week (Study CL-006 plasma PK; human, plasma, 150 mg oteseconazole) of the same molecule?
A: 2150 ng/mL

Q: What about the concentration at 48 week (Study CL-006 plasma PK; human, plasma, 300 mg oteseconazole) of the same molecule?
A: 5090 ng/mL

Q: What about the Tmax (Study CL-006 plasma PK; human, plasma, Day 7, 150 mg, 12 weeks, read-out: Tmax) of the same molecule?
A: 4 h

Q: And the half-life (Study CL-006 plasma PK; human, plasma, calculated using a population PK approach)?
A: ~171 days

Q: And the “increase in Cmax, high-dose versus mid-dose treatment” value ([4]; Day 14, 2-fold dose difference)?
A: 15%

Q: What about the “increase in concentration (Cmax), mid versus low dose” value ([4]; Days 1 and 14, 3-fold increase in dose) of the same molecule?
A: 2 fold

Q: What about the “Cmax achieved as share of target” value ([4]; high-dose group) of the same molecule?
A: about 25%

Q: What about the Cmax [4, 9] of the same molecule?
A: 757 ng/mL

Q: And the Tmax [4, 9]?
A: 5 h

Q: And the AUC(0-t) [4, 9]?
A: 3540 ng·h/mL

Q: What about the Cmax [4, 10] of the same molecule?
A: 2520 ng/mL

Q: And the Tmax [4, 10]?
A: 5.02 h

Q: What about the AUC(0-t) [4, 10] of the same molecule?
A: 17600 ng·h/mL

Q: What about the Cmax [4, 11] of the same molecule?
A: 366 ng/mL

Q: What about the Tmax [4, 11] of the same molecule?
A: 6 h

Q: And the AUC(0-t) [4, 11]?
A: 1680 ng·h/mL

Q: What about the Cmax [4, 12] of the same molecule?
A: 1090 ng/mL

Q: And the Tmax [4, 12]?
A: 5 h

Q: What about the AUC(0-t) [4, 12] of the same molecule?
A: 7950 ng·h/mL

Q: And the Cmax [4, 13]?
A: 679 ng/mL

Q: And the Tmax [4, 13]?
A: 6 h

Q: What about the AUC(0-t) [4, 13] of the same molecule?
A: 3320 ng·h/mL

Q: What about the Cmax [4, 14] of the same molecule?
A: 2180 ng/mL

Q: What about the Tmax [4, 14] of the same molecule?
A: 5 h

Q: What about the AUC(0-t) [4, 14] of the same molecule?
A: 16100 ng·h/mL

Q: What about the half-life ([4]; human, plasma, blood sampling for 168 days (4032 hours), read-out: terminal phase half-life, range of median values) of the same molecule?
A: 86.7 to 172 days

Q: And the “Cmax achieved as share of target” value ([4]; mid-dose group)?
A: about 50%
